For 37 compounds, Ki results are on record in patent US9283222B2 (priority 2006, dated 2016).

Like-named read-outs stand apart in the source and are kept apart here.

As usually defined, the Ki is the dissociation constant of the complex between target and ligand, obtained from inhibition or displacement.

The experiment has as its target Recombinant Human Poly(ADP-Ribose) Polymerase (PARP), PARP-1 (Homo sapiens (Human), UniProt P09874). The conditions noted are these: read-out: PARP-1 (Ki).
Setting [1] is: Table 1, text calls the values EC50s.

Sequence of Recombinant Human Poly(ADP-Ribose) Polymerase (PARP), PARP-1 (P09874 whole entry): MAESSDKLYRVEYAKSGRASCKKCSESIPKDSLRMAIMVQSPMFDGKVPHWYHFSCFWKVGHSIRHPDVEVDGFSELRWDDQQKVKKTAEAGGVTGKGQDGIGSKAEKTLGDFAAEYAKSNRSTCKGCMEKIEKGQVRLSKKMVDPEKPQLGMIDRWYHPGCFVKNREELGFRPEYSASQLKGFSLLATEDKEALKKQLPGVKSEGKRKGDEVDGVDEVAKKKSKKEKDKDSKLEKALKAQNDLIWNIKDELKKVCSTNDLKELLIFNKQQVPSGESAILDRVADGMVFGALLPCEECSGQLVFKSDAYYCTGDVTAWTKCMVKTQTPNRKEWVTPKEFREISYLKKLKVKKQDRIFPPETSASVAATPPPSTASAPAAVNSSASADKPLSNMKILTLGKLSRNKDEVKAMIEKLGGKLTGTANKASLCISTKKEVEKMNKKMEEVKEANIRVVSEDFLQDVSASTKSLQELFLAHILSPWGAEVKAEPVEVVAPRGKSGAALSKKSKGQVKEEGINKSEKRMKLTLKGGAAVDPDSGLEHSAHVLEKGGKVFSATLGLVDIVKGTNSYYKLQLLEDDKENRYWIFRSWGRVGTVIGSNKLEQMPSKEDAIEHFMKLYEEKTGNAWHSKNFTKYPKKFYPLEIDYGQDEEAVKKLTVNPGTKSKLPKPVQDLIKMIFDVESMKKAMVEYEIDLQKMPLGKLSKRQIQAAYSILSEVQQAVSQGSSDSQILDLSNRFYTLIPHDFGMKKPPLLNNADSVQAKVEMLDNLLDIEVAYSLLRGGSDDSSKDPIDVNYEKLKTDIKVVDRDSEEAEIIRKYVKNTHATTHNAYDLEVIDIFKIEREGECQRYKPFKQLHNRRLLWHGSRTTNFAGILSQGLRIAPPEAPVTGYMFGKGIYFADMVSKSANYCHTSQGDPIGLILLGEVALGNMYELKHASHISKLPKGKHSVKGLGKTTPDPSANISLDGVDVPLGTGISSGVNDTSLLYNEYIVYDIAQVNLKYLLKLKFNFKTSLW

In the case of `CN(C)CCNC(=O)c1cccc(Cc2n[nH]c(=O)c3c2CCCC3)c1` [Example 313, N-(2-(dimethylamino)ethyl)-3-((4-oxo-3,4,5,6,7,8-hexahydrophthalazin-1-yl)methyl)benzamide], under setting [1], the inhibitory constant (Ki) was determined as 95 nM. Same read-out and setting: then `O=C(NC1CCN(c2ccccn2)CC1)c1cc(Cc2n[nH]c(=O)c3c2NCCC3)ccc1F` [Example 745, 2-fluoro-5-[(5-oxo-1,2,3,4,5,6-hexahydropyrido[2,3-d]pyridazin-8-yl)methyl]-N-(1-pyridin-2-ylpiperidin-4-yl)benzamide], with 8 nM; and `CC(C)(C)c1cccc(NC(=O)c2cccc(Cc3n[nH]c(=O)c4c3CCCC4)c2)c1` [Example 335, N-(3-tert-butylphenyl)-3-((4-oxo-3,4,5,6,7,8-hexahydrophthalazin-1-yl)methyl)benzamide], with 122 nM.

As for `O=C(COc1ccccc1)Nc1cccc(CCc2n[nH]c(=O)c3c2CCCC3)c1` [Example 263, N-(3-(2-(4-oxo-3,4,5,6,7,8-hexahydrophthalazin-1-yl)ethyl)phenyl)-2-phenoxyacetamide], the inhibition constant Ki under setting [1] came out at 144 nM. Take `Cc1cc(F)ccc1NC(=O)c1cccc(Cc2n[nH]c(=O)c3c2CCCC3)c1` [Example 340, N-(4-fluoro-2-methylphenyl)-3-((4-oxo-3,4,5,6,7,8-hexahydrophthalazin-1-yl)methyl)benzamide]: under setting [1], the Ki amounted to 279 nM.

Turning to `Cc1cc(C(=O)Nc2cccc(Cc3n[nH]c(=O)c4c3CCCC4)c2)c(C)[nH]1` [Example 202, 2,5-dimethyl-N-(3-((4-oxo-3,4,5,6,7,8-hexahydrophthalazin-1-yl)methyl)phenyl)-1H-pyrrole-3-carboxamide], under setting [1], the inhibition constant (Ki) stood at 93 nM. For the compound `CCNC(=O)c1cccc(Cc2n[nH]c(=O)c3c2CCCC3)n1` [Example 81, N-ethyl-6-((4-oxo-3,4,5,6,7,8-hexahydrophthalazin-1-yl)methyl)pyridine-2-carboxamide], the Ki under setting [1] amounted to 123 nM. Same read-out and setting: then `CN(C(=O)C1CCC1)c1cc(Cc2n[nH]c(=O)c3c2CCCC3)ccc1F` [Example 753, N-{2-fluoro-5-[(4-oxo-3,4,5,6,7,8-hexahydrophthalazin-1-yl)methyl]phenyl}-N-methylcyclobutanecarboxamide], with 92 nM; and `COc1ccc(Cc2n[nH]c(=O)c3c2CCCC3)cc1N` [Example 279, 4-(3-amino-4-methoxybenzyl)-5,6,7,8-tetrahydrophthalazin-1(2H)-one], with 467 nM. Still for that read-out and setting: then `O=C1CCCN1c1ccc(Cc2n[nH]c(=O)c3c2CCCC3)cn1` [Example 104, 4-((6-(2-oxopyrrolidin-1-yl)pyridin-3-yl)methyl)-5,6,7,8-tetrahydrophthalazin-1(2H)-one], with 1230 nM; and `CC(Cc1n[nH]c(=O)c2c1CCCC2)c1cccc(-c2cccc(C(=O)NCCN(C)C)c2)c1` (stereo not shown) [Example 282, N-(2-(dimethylamino)ethyl)-3′-(1-methyl-2-(4-oxo-3,4,5,6,7,8-hexahydrophthalazin-1-yl)ethyl)-1,1′-biphenyl-3-carboxamide], with 1710 nM; and `O=C(c1ccc(O)nc1)N1CCN(C(=O)c2cc(Cc3n[nH]c(=O)c4c3NCCC4)ccc2F)CC1` [Example 649], with 0.6 nM.

For `CN(C)c1ccc(NC(=O)c2cccc(Cc3n[nH]c(=O)c4c3CCCC4)c2)cc1` [Example 58, N-(4-(dimethylamino)phenyl)-3-((4-oxo-3,4,5,6,7,8-hexahydrophthalazin-1-yl)methyl)benzamide], the Ki under setting [1] was 51 nM. Same read-out and setting: then `CCN(CC)CCN(C)C(=O)c1cccc(Cc2n[nH]c(=O)c3c2CCCC3)c1` [Example 419, N-(2-(diethylamino)ethyl)-N-methyl-3-((4-oxo-3,4,5,6,7,8-hexahydrophthalazin-1-yl)methyl)benzamide], with 16 nM; and `O=C(NCC1CCNCC1)c1cccc(Cc2n[nH]c(=O)c3c2CCCC3)c1` [Example 63, 3-((4-oxo-3,4,5,6,7,8-hexahydrophthalazin-1-yl)methyl)-N-(piperidin-4-ylmethyl)benzamide], with 23 nM; and `O=C(c1ccccc1)C1CCN(C(=O)c2cc(Cc3n[nH]c(=O)c4c3NCCC4)ccc2F)CC1` [Example 609, 8-{3-[(4-benzoylpiperidin-1-yl)carbonyl]-4-fluorobenzyl}-2,3,4,6-tetrahydropyrido[2,3-d]pyridazin-5(1H)-one], with 1.8 nM. Still for that read-out and setting: then `COc1cc(OC)c(NC(=O)c2cccc(Cc3n[nH]c(=O)c4c3CCCC4)c2)cc1Cl` [Example 359, N-(5-chloro-2,4-dimethoxyphenyl)-3-((4-oxo-3,4,5,6,7,8-hexahydrophthalazin-1-yl)methyl)benzamide], with 151 nM; and `CCOc1ccc(CCNC(=O)c2cccc(Cc3n[nH]c(=O)c4c3CCCC4)c2)cc1OC` [Example 401, N-(2-(4-ethoxy-3-methoxyphenyl)ethyl)-3-((4-oxo-3,4,5,6,7,8-hexahydrophthalazin-1-yl)methyl)benzamide], with 48 nM; and `O=C(CCOc1ccccc1)Nc1cccc(Cc2n[nH]c(=O)c3c2CCCC3)c1` [Example 153, N-(3-((4-oxo-3,4,5,6,7,8-hexahydrophthalazin-1-yl)methyl)phenyl)-3-phenoxypropanamide], with 6 nM. Same read-out and setting: the figure for `O=C(c1cc(Cc2n[nH]c(=O)c3c2CCCC3)ccc1F)N1CCN(Cc2ccccc2Cl)CC1` [Example 518, 4-(3-{[4-(2-chlorobenzyl)piperazin-1-yl]carbonyl}-4-fluorobenzyl)-5,6,7,8-tetrahydrophthalazin-1(2H)-one] is 10 nM; for `CC(=O)N[C@@H](CC(C)C)C(=O)Nc1cccc(Cc2n[nH]c(=O)c3c2CCCC3)c1` [Example 157] it is 124 nM. For the compound `O=c1[nH]nc(CCc2ccccc2)c2c1CCCC2` [Example 255, 4-(2-phenylethyl)-5,6,7,8-tetrahydrophthalazin-1(2H)-one], under setting [1], the inhibitory constant (Ki) worked out at 335 nM. On the same count and under the same terms, then `O=C(Nc1cccc(Cc2n[nH]c(=O)c3c2CCCC3)c1)c1cscn1` [Example 205, N-(3-((4-oxo-3,4,5,6,7,8-hexahydrophthalazin-1-yl)methyl)phenyl)-1,3-thiazole-4-carboxamide], with 176 nM. On the same count and under the same terms, the figure for `CS(=O)(=O)c1cccc(-c2cc(Cc3n[nH]c(=O)c4c3CCCC4)ccc2F)c1` [Example 249, 4-((6-fluoro-3′-(methylsulfonyl)-1,1′-biphenyl-3-yl)methyl)-5,6,7,8-tetrahydrophthalazin-1(2H)-one] is 85 nM; for `O=C(c1ccc2[nH]cnc2c1)N1CCN(C(=O)c2cc(Cc3n[nH]c(=O)c4c3NCCC4)ccc2F)CC1` [Example 663, 8-(3-{[4-(1H-benzimidazol-5-ylcarbonyl)piperazin-1-yl]carbonyl}-4-fluorobenzyl)-2,3,4,6-tetrahydropyrido[2,3-d]pyridazin-5(1H)-one] it is 1 nM. On the same count and under the same terms, then `O=C(NC1CCCCC1)c1cc(Cc2n[nH]c(=O)c3c2CCCC3)ccn1` [Example 77, N-cyclohexyl-4-((4-oxo-3,4,5,6,7,8-hexahydrophthalazin-1-yl)methyl)pyridine-2-carboxamide], with 195 nM.

Turning to `O=c1[nH]nc(Cc2cccc(-c3cccc(CNC4CC4)c3)c2)c2c1CCCC2` [Example 130, 4-((3′-((cyclopropylamino)methyl)-1,1′-biphenyl-3-yl)methyl)-5,6,7,8-tetrahydrophthalazin-1(2H)-one], the inhibitory constant (Ki) under setting [1] amounted to 24 nM. As for `CC(c1cccc(-c2cccc(C(=O)NCCN(C)C)c2)c1)c1n[nH]c(=O)c2c1CCCC2` (stereo not shown) [Example 287, N-(2-(dimethylamino)ethyl)-3′-(1-(4-oxo-3,4,5,6,7,8-hexahydrophthalazin-1-yl)ethyl)-1,1′-biphenyl-3-carboxamide], the Ki under setting [1] was found to be 771 nM. The same measure, in the same setting: the figure for `O=C(c1cc(Cc2n[nH]c(=O)c3c2NCCC3)ccc1F)N1CCN(CCOc2ccccc2)CC1` [Example 561, 8-(4-fluoro-3-{[4-(2-phenoxyethyl)piperazin-1-yl]carbonyl}benzyl)-2,3,4,6-tetrahydropyrido[2,3-d]pyridazin-5(1H)-one] is 3 nM. Take `CC(C)C(=O)N1CCN(C(=O)c2cc(Cc3n[nH]c(=O)c4c3NCCC4)ccc2F)CC1` [Example 565, 8-{4-fluoro-3-[(4-isobutyrylpiperazin-1-yl)carbonyl]benzyl}-2,3,4,6-tetrahydropyrido[2,3-d]pyridazin-5(1H)-one]: the Ki under setting [1] stood at 1.4 nM.

`O=C(c1cccnc1)N1CCCN(C(=O)c2cc(Cc3n[nH]c(=O)c4c3NCCC4)ccc2F)CC1` [Example 683, 8-(4-fluoro-3-{[4-(pyridin-3-ylcarbonyl)-1,4-diazepan-1-yl]carbonyl}benzyl)-2,3,4,6-tetrahydropyrido[2,3-d]pyridazin-5(1H)-one]: the Ki under setting [1] was 2.6 nM. For `O=c1[nH]nc(Cc2ccc(F)c(N3CCCS3(=O)=O)c2)c2c1CCCC2` [Example 305, 4-(3-(1,1-dioxidoisothiazolidin-2-yl)-4-fluorobenzyl)-5,6,7,8-tetrahydrophthalazin-1(2H)-one], the Ki under setting [1] is 3 nM. Still for that read-out and setting: the figure for `O=C(CCC(=O)c1cccs1)Nc1cccc(Cc2n[nH]c(=O)c3c2CCCC3)c1` [Example 166, 4-oxo-N-(3-((4-oxo-3,4,5,6,7,8-hexahydrophthalazin-1-yl)methyl)phenyl)-4-thien-2-ylbutanamide] is 5 nM.

As for `O=C1CCCC(=O)N1c1cc(Cc2n[nH]c(=O)c3c2CCCC3)ccc1F` [Example 303, 1-(2-fluoro-5-((4-oxo-3,4,5,6,7,8-hexahydrophthalazin-1-yl)methyl)phenyl)piperidine-2,6-dione], the inhibition constant (Ki) under setting [1] is 0.8 nM. Still for that read-out and setting: the figure for `CCC(C)C(C(=O)Nc1cccc(Cc2n[nH]c(=O)c3c2CCCC3)c1)c1ccccc1` (stereo not shown) [Example 170, 3-methyl-N-(3-((4-oxo-3,4,5,6,7,8-hexahydrophthalazin-1-yl)methyl)phenyl)-2-phenylpentanamide] is 1700 nM. On to `O=C(Nc1cccc(Cc2n[nH]c(=O)c3c2CCCC3)c1)c1cc(F)ccc1F` [Example 183, 2,5-difluoro-N-(3-((4-oxo-3,4,5,6,7,8-hexahydrophthalazin-1-yl)methyl)phenyl)benzamide], for which the Ki under setting [1] is 166 nM. Take `O=C(c1cccc(Cc2n[nH]c(=O)c3c2CCCC3)c1)N1CCN(c2ccccc2F)CC1` [drawing 38]: for the setting “Table 3, H analogs versus para-F analogs”, the inhibition constant (Ki) worked out at 4 nM.
